These results are taken from ChEMBL document CHEMBL1140367, “Discovery and activity of (1R,4S,6R)-N-[(1R)-2-[4-cyclohexyl-4-[[(1,1-dimethylethyl)amino]carbonyl]-1-piperidinyl]-1-[(4-fluorophenyl)methyl]-2-oxoethyl]-2-methyl-2-azabicyclo[2.2.2]octane-6-carboxamide (3, RY764), a potent and selective melanocortin subtype-4 receptor agonist” (Bioorg Med Chem Lett, 2005).

Series [1] has as its target T1, Melanocortin receptor 3 (Homo sapiens, UniProt P41968). The series is described as follows: Inhibition concentration (binding affinity) against human melanocortin receptor 3 by displacement of [125I]NDP-alpha-MSH from the human receptors expressed in CHO cells. Type of series: cell-based. On the technique in general: Displacement assays read how much labelled ligand stays bound in the presence of the test substance.

For series [2], the target named is T2, Melanocortin receptor 4 (Homo sapiens, UniProt P32245). The series is described as follows: Inhibition concentration (binding affinity) exhibited against human melanocortin receptor 4 by radio labeled ligand assay (Displacement of [125I]NDP-alpha-MSH from the human receptors expressed in CHO cells). Type of series: functional, cell-based.
For series [3], the target named is T3, Melanocortin receptor 5 (Homo sapiens, UniProt P33032). To be noted: 10 uM.
Series [4] concerns the target T3, Melanocortin receptor 5. Put plainly: Inhibition concentration (binding affinity) against human melanocortin receptor 5 by displacement of [125I]NDP-alpha-MSH from the human receptors expressed in CHO cells. Format: cell-based.
Series [5] has as its target T2, Melanocortin receptor 4. The series is described as follows: Inhibition concentration (binding affinity) against human melanocortin receptor 4 by displacement of [125I]NDP-alpha-MSH from the human receptors expressed in CHO cells. Type of series: cell-based.
Series [6] addresses T1, Melanocortin receptor 3. The series is described as follows: Percentage of cAMP accumulation at 10 uM compound relative to alpha-MSH for melanocortin receptor 3. Type of series: functional. (Cyclic AMP is a second messenger, typically raised through Gs and lowered through Gi signalling.)
Series [7] can be described thus: Bioavailability in rhesus as a solution in water at 0.5 mg/kg, iv and 2 mg/kg po. Format: ADME, organism-based, Macaca mulatta. To be noted: rhesus monkey, in vivo.
Series [8] can be described thus: Half life in Sprague Dawley rats as a solution in water at 1 mg/kg, iv and 20 mg/kg, po. To be noted: rat, in vivo. Format: ADME, organism-based.
Series [9] can be described thus: Volume of distribution in Sprague Dawley rats as a solution in water at 1 mg/kg, iv and 20 mg/kg, po. Type of series: ADME, organism-based. As to conditions: rat, in vivo, read-out: Vdss.
Series [10] can be described thus: Volume of distribution in rhesus as a solution in water at 0.5 mg/kg, iv and 2 mg/kg po. As to conditions: cercopithecidae, in vivo, read-out: Vdss. Type of series: ADME, organism-based.
Series [11] is described as follows: Half life in rhesus as a solution in water at 0.5 mg/kg, iv and 2 mg/kg po. As to conditions: cercopithecidae, in vivo. Type of series: ADME, organism-based.
In series [12] the target is T4, Melanocortin receptor 4 (Mus musculus, UniProt P56450). The series is described as follows: Concentration of compound at 50% maximum cAMP accumulation in mouse melanocortin receptor (mMC4R). Type of series: functional.
In series [13] the target is T4, Melanocortin receptor 4. Put plainly: Inhibition concentration (binding affinity) against mouse melanocortin receptor 4 by displacement of [125I]NDP-alpha-MSH from the human receptors expressed in CHO cells. Format: cell-based.
Series [14] is described as follows: Bioavailability in beagles as a solution in water at 0.5 mg/kg, iv and 2.0 mg/kg, po. Type of series: ADME, organism-based, Canis lupus familiaris. To be noted: beagle, dog, in vivo.
In series [15] the target is T5, Melanocortin receptor 4 (Rattus norvegicus, UniProt P70596). The series is described as follows: Concentration of compound at 50% maximum cAMP accumulation in rat melanocortin receptor (rMC4R). Type of series: functional.
Series [16] is described as follows: Half life in beagles as a solution in water at 0.5 mg/kg, iv and 2.0 mg/kg, po. Format: ADME, organism-based, Canis lupus familiaris. To be noted: beagle, dog, in vivo.
For series [17], the target named is T1, Melanocortin receptor 3. Put plainly: Percentage of cAMP accumulation at 10 uM compound relative to alpha-MSH in hMC3R. Type of series: functional.
For series [18], the target named is T2, Melanocortin receptor 4. The series is described as follows: Concentration of compound at 50% maximum cAMP accumulation in human melanocortin receptor (hMC4R). Format: functional.
Series [19] is described as follows: Bioavailability in Sprague Dawley rats as a solution in water at 1 mg/kg, iv and 20 mg/kg, po. Type of series: ADME, organism-based. As to conditions: rat, in vivo.
Series [20] is described as follows: […] in beagles as a solution in water at 0.5 mg/kg, iv and 2.0 mg/kg, po. Type of series: organism-based, Canis lupus familiaris. To be noted: beagle, dog, in vivo.
Series [21] addresses T6, Adrenocorticotropic hormone receptor (Homo sapiens, UniProt Q01718). As to conditions: 10 uM.
For series [22], the target named is T5, Melanocortin receptor 4. The series is described as follows: Inhibition concentration (binding affinity) against rat melanocortin receptor 4 by displacement of [125I]NDP-alpha-MSH from the human receptors expressed in CHO cells. Type of series: cell-based.
A short description of series [23]: Clearance in Sprague Dawley rats as a solution in water at 1 mg/kg, iv and 20 mg/kg, po. Type of series: ADME, organism-based. As to conditions: rat, in vivo.
Series [24] is described as follows: Cmax value in rhesus as a solution in water at 0.5 mg/kg, iv and 2 mg/kg po. Type of series: ADME, organism-based. As to conditions: cercopithecidae, in vivo.
Series [25] in a line: Cmax value in beagles as a solution in water at 0.5 mg/kg, iv and 2.0 mg/kg, po. As to conditions: beagle, dog, in vivo. Format: ADME, organism-based, Canis lupus familiaris.
Series [26] can be described thus: […] in Sprague Dawley rats as a solution in water at 1 mg/kg, iv and 20 mg/kg, po. As to conditions: rat, in vivo. Format: organism-based.
A short description of series [27]: […] in rhesus as a solution in water at 0.5 mg/kg, iv and 2 mg/kg po. Format: organism-based. As to conditions: cercopithecidae, in vivo.
Series [28] concerns the target T6, Adrenocorticotropic hormone receptor. The series is described as follows: Inhibition concentration (binding affinity) against human melanocortin receptor 2 by displacement of [125I]NDP-alpha-MSH from the human receptors expressed in CHO cells. Format: cell-based.
Series [29] can be described thus: Cmax value in Sprague Dawley rats as a solution in water at 1 mg/kg, iv and 20 mg/kg, po. To be noted: rat, in vivo. Format: ADME, organism-based.
For series [30], the target named is T3, Melanocortin receptor 5. Put plainly: Concentration of compound at 50% maximum cAMP accumulation in human melanocortin receptor (hMC5R). Format: functional.
Series [31] is described as follows: Clearance in beagles as a solution in water at 0.5 mg/kg, iv and 2.0 mg/kg, po. Type of series: ADME, organism-based, Canis lupus familiaris. As to conditions: beagle, dog, in vivo.
In series [32] the target is Melanocyte-stimulating hormone receptor (Homo sapiens, UniProt Q01726). The series is described as follows: Inhibition concentration (binding affinity) against human melanocortin receptor 1 by displacement of [125I]NDP-alpha-MSH from the human receptors expressed in CHO cells. Type of series: cell-based.
Series [33] in a line: Volume of distribution in beagles as a solution in water at 0.5 mg/kg, iv and 2.0 mg/kg, po. Format: ADME, organism-based, Canis lupus familiaris. As to conditions: beagle, dog, in vivo, read-out: Vdss.
Series [34] is described as follows: Clearance in rhesus as a solution in water at 0.5 mg/kg, iv and 2 mg/kg po. Format: ADME, organism-based. To be noted: cercopithecidae, in vivo.
The target of series [35] is T3, Melanocortin receptor 5. Put plainly: Inhibition concentration (binding affinity) exhibited against human melanocortin receptor 5 by radio labeled ligand assay (Displacement of [125I]NDP-alpha-MSH from the human receptors expressed in CHO cells). Type of series: functional, cell-based.
The target of series [36] is T2, Melanocortin receptor 4. The series is described as follows: Effective concentration (binding affinity) exhibited against human melanocortin receptor 4 by radio labeled ligand assay (Displacement of [125I]NDP-alpha-MSH from the human receptors expressed in CHO cells). Format: functional, cell-based.

T2 sequence (P32245 whole entry): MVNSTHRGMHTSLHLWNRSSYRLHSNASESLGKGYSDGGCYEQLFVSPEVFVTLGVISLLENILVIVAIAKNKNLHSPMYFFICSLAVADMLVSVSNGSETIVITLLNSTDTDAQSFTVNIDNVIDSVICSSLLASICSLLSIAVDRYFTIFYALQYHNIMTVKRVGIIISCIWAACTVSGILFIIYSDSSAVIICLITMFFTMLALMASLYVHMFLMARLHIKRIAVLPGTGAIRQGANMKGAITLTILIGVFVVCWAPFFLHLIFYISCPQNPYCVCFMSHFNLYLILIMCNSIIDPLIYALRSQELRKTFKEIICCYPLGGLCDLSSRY
T3 sequence (P33032 whole entry): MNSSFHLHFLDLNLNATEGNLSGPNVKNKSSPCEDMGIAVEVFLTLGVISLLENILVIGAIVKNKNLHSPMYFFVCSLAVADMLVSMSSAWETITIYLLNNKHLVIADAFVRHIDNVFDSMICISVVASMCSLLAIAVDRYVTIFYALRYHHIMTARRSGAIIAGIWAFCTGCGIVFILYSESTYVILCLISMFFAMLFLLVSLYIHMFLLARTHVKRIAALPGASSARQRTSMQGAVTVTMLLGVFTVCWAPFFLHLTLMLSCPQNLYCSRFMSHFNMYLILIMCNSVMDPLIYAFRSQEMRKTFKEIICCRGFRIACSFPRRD
T1 sequence (P41968 whole entry): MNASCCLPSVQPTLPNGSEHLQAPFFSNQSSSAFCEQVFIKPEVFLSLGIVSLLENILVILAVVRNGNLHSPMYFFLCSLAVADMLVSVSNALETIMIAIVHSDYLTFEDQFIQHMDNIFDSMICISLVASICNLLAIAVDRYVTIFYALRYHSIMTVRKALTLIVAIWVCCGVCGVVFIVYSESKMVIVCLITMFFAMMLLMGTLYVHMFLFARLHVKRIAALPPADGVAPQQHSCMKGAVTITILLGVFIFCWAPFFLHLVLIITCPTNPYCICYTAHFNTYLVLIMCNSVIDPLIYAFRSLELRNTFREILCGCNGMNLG
T4 sequence (P56450 whole entry): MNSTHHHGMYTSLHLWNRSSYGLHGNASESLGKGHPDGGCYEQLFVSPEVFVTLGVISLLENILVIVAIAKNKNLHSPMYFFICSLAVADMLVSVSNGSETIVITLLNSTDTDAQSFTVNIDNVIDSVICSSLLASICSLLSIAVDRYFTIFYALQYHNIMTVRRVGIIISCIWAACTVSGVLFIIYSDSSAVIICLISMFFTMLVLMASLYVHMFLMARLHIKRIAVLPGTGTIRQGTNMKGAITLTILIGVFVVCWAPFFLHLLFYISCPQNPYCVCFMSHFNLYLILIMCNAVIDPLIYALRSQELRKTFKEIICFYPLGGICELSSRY
T6 sequence (Q01718 whole entry): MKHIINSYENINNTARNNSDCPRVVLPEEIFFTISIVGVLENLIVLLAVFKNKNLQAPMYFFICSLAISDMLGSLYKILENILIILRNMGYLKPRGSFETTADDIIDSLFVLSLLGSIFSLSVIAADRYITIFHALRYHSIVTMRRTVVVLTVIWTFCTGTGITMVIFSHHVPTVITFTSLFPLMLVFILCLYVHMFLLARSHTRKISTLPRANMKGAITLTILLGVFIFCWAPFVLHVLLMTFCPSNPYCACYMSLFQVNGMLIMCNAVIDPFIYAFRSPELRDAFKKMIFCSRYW
T5 sequence (P70596 whole entry): as the sequence (P56450 whole entry) above, with Y21H, P36S, S199T, T239A, S329P, S330G counted along it
Melanocyte-stimulating hormone receptor, sequence (Q01726 whole entry): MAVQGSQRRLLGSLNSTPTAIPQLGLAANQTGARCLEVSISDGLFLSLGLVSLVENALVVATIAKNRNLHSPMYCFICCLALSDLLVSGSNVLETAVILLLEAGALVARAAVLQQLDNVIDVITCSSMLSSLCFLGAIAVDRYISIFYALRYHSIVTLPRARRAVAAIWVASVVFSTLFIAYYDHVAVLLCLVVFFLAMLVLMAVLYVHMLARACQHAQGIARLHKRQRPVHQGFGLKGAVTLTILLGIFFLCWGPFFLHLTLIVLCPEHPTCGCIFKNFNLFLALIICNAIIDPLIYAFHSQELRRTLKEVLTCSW

As to `CC(C)(C)NC(=O)C1(C2CCCCC2)CCN(C(=O)[C@@H](Cc2ccc(F)cc2)NC(=O)C2CC3CCC2NC3)CC1` (single isomer, unassigned), the IC50 (commonly the concentration that inhibits the measured activity by half) is 620 nM on Melanocortin receptor 3 [1], 940 nM on Melanocortin receptor 5 [4] and 16 nM at Melanocortin receptor 4 [5]. The EC50 (as a rule, the concentration at which the effect is half-maximal) on Melanocortin receptor 4 [2] was 20 nM. Besides, the Max came to 11% on Melanocortin receptor 5 [3] and 4% at Melanocortin receptor 3 [6].
As to `CN1C[C@H]2CC[C@@H]1[C@H](C(=O)N[C@H](Cc1ccc(F)cc1)C(=O)N1CCC(C(=O)NC(C)(C)C)(C3CCCCC3)CC1)C2`, the bioavailability (as a rule, dose-corrected exposure relative to a reference, in per cent) in series [7] came to 16%; in series [14], 50%; in series [19], 32%. Further, the half-life (as a rule, how long it takes for the measured level to halve) was 3.2 h in [8], 4.6 h in series [11] and 4.9 h in [16]. Also, the Vd worked out at 9.6 L/kg in [9], 0.8 L/kg in [10] and 2.3 L/kg in series [33]. For the same compound, the EC50 at Melanocortin receptor 4 [12] came to 6000 nM; at Melanocortin receptor 4 [15], 5000 nM; on Melanocortin receptor 4 [18], 11000 nM; at Melanocortin receptor 5 [30], 850 nM. Moreover, the IC50 was 3000 nM at Melanocortin receptor 4 [13], 3000 nM on Melanocortin receptor 4 [22], more than 10000 nM in series [28] and 750 nM in series [32]. The figures for the Activation (on Melanocortin receptor 3 [17]; in [21]) were 8% and 2%, respectively. Also, the Tmax (as a rule, the time at which the peak concentration occurs) in series [20] is 1.1 h; in [26] it was 3 h; in series [27], 1.3 h. Further, the clearance in [23] came to 46.9 mL/min/kg; in series [31], 6.6 mL/min/kg; in series [34], 3.4 mL/min/kg. For the same compound, the Max on Melanocortin receptor 5 [3] amounted to 33%; on Melanocortin receptor 3 [6], 8%. The Cmax – broadly, the peak of the concentration-time curve – in [24] came out at 850 nM; in series [25] it was 910 nM; in series [29] it was 870 nM.
`CC(C)(C)NC(=O)C1(C2CCCCC2)CCN(C(=O)[C@@H](Cc2ccc(F)cc2)NC(=O)[C@H]2C[C@H]3CC[C@@H]2NC3)CC1`: the IC50 is 2060 nM at Melanocortin receptor 3 [1], 9870 nM at Melanocortin receptor 5 [4] and 41 nM on Melanocortin receptor 4 [5]. Besides, the EC50 came out at 1980 nM on Melanocortin receptor 5 [35] and 238 nM at Melanocortin receptor 4 [2]. The Max at Melanocortin receptor 5 [3] turned out to be 26%; at Melanocortin receptor 3 [6], 10%.
`CN1C[C@@H]2CC[C@H]1[C@@H](C(=O)N[C@H](Cc1ccc(F)cc1)C(=O)N1CCC(C(=O)NC(C)(C)C)(C3CCCCC3)CC1)C2`: the half-inhibitory concentration (IC50) on Melanocortin receptor 3 [1] was found to be 410 nM; at Melanocortin receptor 5 [4] it was 1080 nM; at Melanocortin receptor 4 [5], 6 nM. The EC50 at Melanocortin receptor 4 [2] turned out to be 34 nM. Further, the Max at Melanocortin receptor 5 [3] was found to be 5%; at Melanocortin receptor 3 [6], 4%.
For `CC(C)(C)NC(=O)C1(C2CCCCC2)CCN(C(=O)[C@@H](Cc2ccc(F)cc2)NC(=O)[C@H]2C[C@@H]3CC[C@@H]2NC3)CC1`, the results for the IC50 on Melanocortin receptor 3 [1], on Melanocortin receptor 5 [4] and on Melanocortin receptor 4 [5] were 620 nM, 1020 nM and 14 nM, respectively. The midpoint of the response on Melanocortin receptor 4 [2], the EC50, lay at 52 nM. This compound displayed a Max at Melanocortin receptor 5 [3] of 3%. The pMax at Melanocortin receptor 3 [6] turned out to be 3%.
Consider `CN1C[C@H]2CC[C@@H]1[C@@H](C(=O)N[C@H](Cc1ccc(F)cc1)C(=O)N1CCC(C(=O)NC(C)(C)C)(C3CCCCC3)CC1)C2`, for which the results for the IC50 on Melanocortin receptor 3 [1], at Melanocortin receptor 5 [4] and on Melanocortin receptor 4 [5] were 1350 nM, 6460 nM and 28 nM, respectively. For the same compound, the values for the half-maximal effective concentration (EC50) at Melanocortin receptor 5 [35] and at Melanocortin receptor 4 [36] were 850 nM and 165 nM, respectively. The Max at Melanocortin receptor 5 [3] stood at 14%; at Melanocortin receptor 3 [6], 5%.
